Source: patent US8703199B2, “Pharmaceutical compositions of adsorbates of amorphous drug” (Bend Research, Inc., priority 2001, dated 2014)
One block for each compound: values may come before it.

Experiments:
Format in all cases: physicochemical
[1] = in vitro dissolution test, microcentrifuge method, Drug 3 in 0.5 wt % MFD solution
Experimental: The adsorbate of Example 17 was evaluated in an in vitro dissolution test as in Example 2 using 1.44 mg of the adsorbate of […], or 0.36 mg of crystalline Drug 3 (Control 3) in a microcentrifuge tube with 1.8 ml of 0.5 wt % MFD solution. Samples were analyzed by HPLC at a UV absorbance of 254 nm using a Phenomex ODS 20 column and a mobile phase consisting of 60% 0.02 M KH2PO4(pH 3.0)/40% acetonitrile.
(§1) The drug/substrate adsorbate of Example 35 was evaluated in an in vitro dissolution test using the procedure described in Example 18, except that 1.44 mg of the adsorbate, or 0.36 mg of Control 3B, was added to a microcentrifuge tube containing 1.8 mL 0.5 wt % MFD solution at pH 6.5.
as §1, with “drug/concentration-enhancing polymer/substrate” for “drug/substrate”, “37” for “35”, “1.96” for “1.44”, “0.39” for “0.36”, “3A,” for “3B,”

[2] = in vitro dissolution test, microcentrifuge method, Drug 2 in PBS (alone or with Pluronic F-127); set-up: AUC / AUC90: concentration or dose not given beside the values; settings: for AUC / Drug 2 Concentration: PBS pH 6.5
Experimental: (§2) The tubes were placed in a 37° C. temperature-controlled chamber, and 1.8 mL phosphate buffered saline (PBS) at pH 6.5 and 290 mOsm/kg was added. The solutions were quickly mixed using a vortex mixer for about 60 seconds, and then centrifuged at 13,000 G at 37° C. for […]. The resulting supernatant solution was then sampled and diluted 1:5 (by volume) with methanol. Diluted samples were analyzed by high-performance liquid chromatography (HPLC) at a UV absorbance of 245 nm using a Phenomenex Kromasil C4 column and a mobile phase of 45% (0.2% H3PO4)/55% acetonitrile. After sampling, the contents of the tubes were mixed on the vortex mixer and allowed to stand undisturbed at 37° C. until the next sample was taken. Samples were collected at 4, 10, 20, 40, 90, and 1200 minutes.
This example illustrates that combining concentration-enhancing polymer with a drug/substrate adsorbate results in improved concentration enhancement. The adsorbate of Example 9, consisting of 25 wt % Drug 2 and 75 wt % CAB-O-SIL M-5P, was evaluated in an in vitro dissolution test using the procedure describe in Example 2, except that 7.2 mg of the adsorbate, or 1.8 mg of Control 2B, was added to a microcentrifuge tube containing 1.8 mL PBS alone, or 1.8 mL PBS with 3.6 mg of the concentration-enhancing polymer polyoxyethylene-polyoxypropylene block copolymer (Pluronic® F-127, available from BASF Corp.) HPLC analysis of Drug 2 was performed as described in Example 7. […]

[3] = in vitro dissolution test, microcentrifuge method, Drug 2 in 0.5 wt % MFD solution; settings: for AUC / Drug 2 Concentration: 0.5 wt % MFD solution pH 6.5
Experimental: The adsorbate of Example 6 and the crystalline drug of Control 2A were evaluated in an in vitro dissolution test using a microcentrifuge method as in Example 2. In this test, 9 mg of the adsorbate of Example 6, or 1.8 mg of Control 2A, was added to a microcentrifuge tube. The tubes were placed in a 37° C. temperature-controlled chamber, and 1.8 mL of 0.5 wt % MFD solution at pH 6.5 and 290 mOsm/kg was added. The samples were quickly mixed using a vortex mixer for about 60 seconds. The samples were centrifuged at 13,000 G at 37° C. for 1 minute. The resulting supernatant solution was then sampled and diluted 1:5 (by volume) with methanol. Diluted samples were analyzed by HPLC at a UV absorbance of 256 nm using a Waters Symmetry C8 column and a mobile phase consisting of 15% (0.2% H3PO4)/85% methanol. The contents of the tubes were mixed on the vortex mixer and allowed to stand undisturbed at 37° C. until the next sample was taken. Samples were collected at 4, 10, 20, 40, 90, and 1200 minutes. […]

[4] = nuclear magnetic resonance (NMR) test of dissolved Drug 2 in deuterated MFD solution; settings: after equilibration for 3 days
Experimental: The adsorbate of Example 9 and the crystalline drug of Control 2A were evaluated using a nuclear magnetic resonance (NMR) test. In this test, 0.690 mg of the adsorbate of Example 9, or 0.174 mg of Control 2, was added to a microcentrifuge tube. The tubes were placed in a 37° C. temperature-controlled chamber, and 1.7 mL for Example 9, or 1.8 mL for Control 2A, of 2 wt % deuterated MFD solution (d-MFD) at pH 6.5, 37° C., and 290 mOsm/kg was added. The samples were quickly mixed using a vortex mixer for 60 seconds. […] The supernatant was then carefully transferred to an 8 mm glass NMR tube for Example 9. […]
Fluorine spectra of the sample were recorded at 282.327 MHz on a Varian Gemini 2000, 300 MHz NMR equipped with a Nalorac 8 mm indirect detection probe. […] Drug resonances were integrated relative to the internal standard peak and the drug concentration determined. The given experiment time was calculated from the time the solvent was added to the solid sample until half of the time the spectrum had been acquired by the NMR. For example, when the spectra has been recorded for 2 hours after the sample was equilibrated for 30 minutes the time listed for the NMR result is 90 minutes. […]
The adsorbates of Example 13 and Example 14 were evaluated using the nuclear magnetic resonance (NMR) test described in Example 11. […]

[5] = accelerated storage test of physical stability (PXRD)
Experimental: The stability of Example 1 adsorbate was evaluated in an accelerated storage test. The adsorbate was stored under elevated temperature and humidity conditions to increase the rate of physical changes occurring in the material in order to simulate a longer storage interval in a typical storage environment. Samples of the adsorbate and Control 1B were stored at 40° C./75% relative humidity (RH). Samples were analyzed using a powder X-ray diffraction (PXRD) technique using a Bruker AXS D8 Advance diffractometer as follows. The X-ray tube (KCu, 1.54184 Å) was operated at a voltage of 45 kV and a current of 40 mA with the beam focused through a Göbel mirror and a series of slits into a line focus. Diffractograms were typically collected over the 2□ range of 4° to 40° with a step size of 0.02°/step. Data were collected for a minimum time of 2.4 sec/step. Scans were obtained by holding the tube at a constant angle (to keep the illuminated area of the sample constant) and scanning a scintillation-counter detector fitted with a thin film collimator through 2□. […]
Samples of the adsorbate of Example 9 were assessed for physical stability by storing them for 12 weeks at 50° C./75% RH. […]
The physical stability of the adsorbate of Example 23 was evaluated by storing samples of the adsorbate at 40° C. and 75% relative humidity and periodically withdrawing samples and analyzing them by PXRD.

[6] = in vitro dissolution test, microcentrifuge method, Drug 4 in PBS; set-up: AUC / AUC90: concentration or dose not given beside the values
Experimental: as §2, with “minutes. […]” for “minutes.”
The adsorbate of Example 23 was evaluated in the in vitro dissolution test described in Example 22. In this test, 45 mg of the adsorbate of Example 23 was added to the microcentrifuge tubes used in the test. Samples for this test were collected at 4, 10, 20, 40, 90, and 1200 minutes.

[7] = 1200 min, 0.5 wt % MFD solution

AUC ([1]; 0 min, 0.5 wt % MFD solution): 0 µg·min/mL | Drug 3 Concentration ([1]; 0 min, 0.5 wt % MFD solution): 0 μgA/mL | AUC ([1]; 4 min, 0.5 wt % MFD solution): 0 µg·min/mL | Drug 3 Concentration ([1]; 4 min, 0.5 wt % MFD solution): 2 μgA/mL | AUC ([1]; 10 min, 0.5 wt % MFD solution): 0 µg·min/mL | Drug 3 Concentration ([1]; 10 min, 0.5 wt % MFD solution): 2 μgA/mL | AUC ([1]; 20 min, 0.5 wt % MFD solution): 0 µg·min/mL | Drug 3 Concentration ([1]; 20 min, 0.5 wt % MFD solution): 2 μgA/mL | AUC ([1]; 40 min, 0.5 wt % MFD solution): 100 µg·min/mL | Drug 3 Concentration ([1]; 40 min, 0.5 wt % MFD solution): 2 μgA/mL | AUC ([1]; 90 min, 0.5 wt % MFD solution): 200 µg·min/mL | Drug 3 Concentration ([1]; 90 min, 0.5 wt % MFD solution): 2 μgA/mL | AUC [1, 7]: 2,400 min * μg/mL | Drug 3 Concentration [1, 7]: 2 μgA/mL | AUC90 ([1]; Drug 3, 0.5% MFD): 200 µg·min/mL | C1200 ([1]; Drug 3, 0.5 wt % MFD solution): 2 μgA/mL
SMILES: O=C1Cc2cc(CCN3CCN(c4nsc5ccccc45)CC3)c(Cl)cc2N1 [Control 3B]

AUC ([2]; 0 min): 0 µg·min/mL | Drug 2 Concentration ([2]; 0 min): <1 μgA/mL | AUC ([2]; 4 min): <2 µg·min/mL | Drug 2 Concentration ([2]; 4 min): <1 μgA/mL | AUC ([2]; 10 min): <8 µg·min/mL | Drug 2 Concentration ([2]; 10 min): <1 μgA/mL | AUC ([2]; 20 min): <18 µg·min/mL | Drug 2 Concentration ([2]; 20 min): <1 μgA/mL | AUC ([2]; 40 min): <38 µg·min/mL | Drug 2 Concentration ([2]; 40 min): <1 μgA/mL | AUC ([2]; 90 min): <88 µg·min/mL | Drug 2 Concentration ([2]; 90 min): <1 μgA/mL | AUC ([2]; 1200 min): <1,200 min * μg/mL | Drug 2 Concentration ([2]; 1200 min): <1 μgA/mL | AUC90 ([2]; Drug 2, PBS): <88 µg·min/mL | C1200 ([2]; Drug 2, PBS): <1 μgA/mL
SMILES: CCOC(=O)N1c2ccc(C(F)(F)F)cc2[C@@H](N(Cc2cc(C(F)(F)F)cc(C(F)(F)F)c2)C(=O)OC)C[C@H]1CC [Control 2B, [2R,4S] 4-[(3,5-bis-trifluoromethyl-benzyl)-methoxycarbonyl-amino]-2-ethyl-6-trifluoromethyl-3,4-dihydro-2H-quinoline-1-carboxylic acid ethyl ester]

AUC ([3]; 0 min): 0 µg·min/mL | Drug 2 Concentration ([3]; 0 min): 0 µg/mL | AUC ([3]; 4 min): 6 µg·min/mL | Drug 2 Concentration ([3]; 4 min): 3 µg/mL | AUC ([3]; 10 min): 21 µg·min/mL | Drug 2 Concentration ([3]; 10 min): 2 µg/mL | AUC ([3]; 20 min): 71 µg·min/mL | Drug 2 Concentration ([3]; 20 min): 8 µg/mL | AUC ([3]; 40 min): 190 µg·min/mL | Drug 2 Concentration ([3]; 40 min): 4 µg/mL | AUC ([3]; 90 min): 570 µg·min/mL | Drug 2 Concentration ([3]; 90 min): 11 µg/mL | AUC ([3]; 1200 min): 14,700 min * μg/mL | Drug 2 Concentration ([3]; 1200 min): 15 µg/mL | AUC90 ([3]; Drug 2, 0.5 wt % MFD solution): 570 µg·min/mL | Cmax,90 ([3]; Drug 2, 0.5 wt % MFD solution): 11000 ng/mL | dissolved Drug 2 concentration [4]: 13 μgA/mL
SMILES: CCOC(=O)N1c2ccc(C(F)(F)F)cc2[C@@H](N(Cc2cc(C(F)(F)F)cc(C(F)(F)F)c2)C(=O)OC)C[C@H]1CC [Control 2A, [2R,4S] 4-[(3,5-bis-trifluoromethyl-benzyl)-methoxycarbonyl-amino]-2-ethyl-6-trifluoromethyl-3,4-dihydro-2H-quinoline-1-carboxylic acid ethyl ester]

crystallization rate ([5]; 4 days at 40° C. and 75% relative humidity): 20 %/day | crystallinity of the drug ([5]; after 4 days of storage at 40° C. and 75% relative humidity, PXRD): more than 80%
SMILES: COc1ccc2c(c1)c(CC(=O)O)c(C)n2C(=O)c1ccc(Cl)cc1 [amorphous control, Indomethacin]

AUC ([6]; 0 min): 0 µg·min/mL | Drug 4 Concentration ([6]; 0 min): 0 μgA/mL | AUC ([6]; 4 min): 630 µg·min/mL | Drug 4 Concentration ([6]; 4 min): 320 μgA/mL | AUC ([6]; 10 min): 2,600 min * μg/mL | Drug 4 Concentration ([6]; 10 min): 340 μgA/mL | AUC ([6]; 20 min): 7,300 min * μg/mL | Drug 4 Concentration ([6]; 20 min): 610 μgA/mL | AUC ([6]; 40 min): 8,100 min * μg/mL | Drug 4 Concentration ([6]; 40 min): 460 μgA/mL | AUC ([6]; 90 min): 41,700 min * μg/mL | Drug 4 Concentration ([6]; 90 min): 480 μgA/mL | AUC ([6]; 1200 min): 527,700 min * μg/mL | Drug 4 Concentration ([6]; 1200 min): 400 μgA/mL | AUC90 ([6]; Drug 4): 41,700 min * μg/mL
SMILES: COc1ccc2c(c1)c(CC(=O)O)c(C)n2C(=O)c1ccc(Cl)cc1 [Control 4, Indomethacin]

AUC ([1]; 0 min, 0.5 wt % MFD solution): 0 µg·min/mL | Drug 3 Concentration ([1]; 0 min, 0.5 wt % MFD solution, 0.36 mg crystalline drug added): 0 μgA/mL | Drug 3 Concentration ([1]; 1200 min, 0.5 wt % MFD solution, 0.36 mg crystalline drug added): 5 μgA/mL | Drug 3 Concentration ([1]; 1200 min, 0.5 wt % MFD solution, 0.39 mg crystalline drug added, pH 6.5): 9 μgA/mL | C1200 ([1]; Drug 3, 0.5 wt % MFD solution): 9 μgA/mL | Cmax,90 ([1]; Drug 3, 0.5 wt % MFD solution): 3000 ng/mL
SMILES: O=C1Cc2cc(CCN3CCN(c4nsc5ccccc45)CC3)c(Cl)cc2N1 [Control 3A]
